Laboratory results taken from US11578079B2, “SUMO inhibitor compounds and uses thereof” (CITY OF HOPE, priority 2018, dated 2023).

What was measured:
Parameters in all cases: key: + (less active); ++ (active); +++ (most active)
c-Myc = c-Myc activity (Table I, biological activities)
SUMO = target: T1, SUMO (Homo sapiens, UniProt Q9UBT2); assay: SUMO activity (Table I, biological activities); assay type: biochemical
T1 sequence (Q9UBT2 1-640): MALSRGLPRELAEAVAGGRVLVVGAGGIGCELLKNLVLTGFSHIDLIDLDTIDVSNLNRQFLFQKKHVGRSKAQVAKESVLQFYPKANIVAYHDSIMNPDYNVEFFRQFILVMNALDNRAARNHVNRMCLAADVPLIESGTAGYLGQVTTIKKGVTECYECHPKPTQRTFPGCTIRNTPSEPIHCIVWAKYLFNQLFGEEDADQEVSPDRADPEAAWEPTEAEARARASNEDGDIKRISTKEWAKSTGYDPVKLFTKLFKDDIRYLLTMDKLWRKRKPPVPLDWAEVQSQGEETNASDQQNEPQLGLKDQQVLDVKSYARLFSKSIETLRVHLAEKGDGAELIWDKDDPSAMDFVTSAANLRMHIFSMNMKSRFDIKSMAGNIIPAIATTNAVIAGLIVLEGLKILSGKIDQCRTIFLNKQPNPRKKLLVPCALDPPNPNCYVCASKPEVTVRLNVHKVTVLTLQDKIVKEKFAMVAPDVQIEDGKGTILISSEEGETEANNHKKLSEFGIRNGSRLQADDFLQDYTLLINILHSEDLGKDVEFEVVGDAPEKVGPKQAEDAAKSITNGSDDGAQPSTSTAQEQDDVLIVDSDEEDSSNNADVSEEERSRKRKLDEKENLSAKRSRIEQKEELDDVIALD
T1 sequence (Q9UBE0 1-346 partner): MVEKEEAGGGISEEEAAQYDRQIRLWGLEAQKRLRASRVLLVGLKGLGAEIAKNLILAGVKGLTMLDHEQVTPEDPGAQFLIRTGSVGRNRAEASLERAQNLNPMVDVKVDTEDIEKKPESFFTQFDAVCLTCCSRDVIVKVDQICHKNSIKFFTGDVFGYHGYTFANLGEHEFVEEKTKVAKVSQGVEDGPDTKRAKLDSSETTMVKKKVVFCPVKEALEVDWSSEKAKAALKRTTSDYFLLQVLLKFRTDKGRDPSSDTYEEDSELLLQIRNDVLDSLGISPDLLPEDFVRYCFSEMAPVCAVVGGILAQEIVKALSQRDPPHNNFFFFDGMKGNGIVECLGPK

Nedd8 = target: T2, Nedd8 (Homo sapiens, UniProt Q8TBC4); assay: Nedd8 activity (Table I, biological activities); assay type: biochemical
T2 sequence (Q8TBC4 1-463): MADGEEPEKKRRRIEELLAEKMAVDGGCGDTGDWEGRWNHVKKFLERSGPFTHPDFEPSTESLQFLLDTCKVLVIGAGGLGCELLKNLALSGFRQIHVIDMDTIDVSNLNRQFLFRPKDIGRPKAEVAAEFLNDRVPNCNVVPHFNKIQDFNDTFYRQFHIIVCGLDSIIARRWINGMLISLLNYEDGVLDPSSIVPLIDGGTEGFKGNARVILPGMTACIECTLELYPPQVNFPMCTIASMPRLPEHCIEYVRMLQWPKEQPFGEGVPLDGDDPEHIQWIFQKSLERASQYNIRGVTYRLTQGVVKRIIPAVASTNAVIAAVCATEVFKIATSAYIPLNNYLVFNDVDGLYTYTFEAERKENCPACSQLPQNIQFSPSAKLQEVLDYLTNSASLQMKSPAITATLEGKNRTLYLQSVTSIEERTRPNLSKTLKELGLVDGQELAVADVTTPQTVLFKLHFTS
T2 sequence (Q13564 1-534 partner): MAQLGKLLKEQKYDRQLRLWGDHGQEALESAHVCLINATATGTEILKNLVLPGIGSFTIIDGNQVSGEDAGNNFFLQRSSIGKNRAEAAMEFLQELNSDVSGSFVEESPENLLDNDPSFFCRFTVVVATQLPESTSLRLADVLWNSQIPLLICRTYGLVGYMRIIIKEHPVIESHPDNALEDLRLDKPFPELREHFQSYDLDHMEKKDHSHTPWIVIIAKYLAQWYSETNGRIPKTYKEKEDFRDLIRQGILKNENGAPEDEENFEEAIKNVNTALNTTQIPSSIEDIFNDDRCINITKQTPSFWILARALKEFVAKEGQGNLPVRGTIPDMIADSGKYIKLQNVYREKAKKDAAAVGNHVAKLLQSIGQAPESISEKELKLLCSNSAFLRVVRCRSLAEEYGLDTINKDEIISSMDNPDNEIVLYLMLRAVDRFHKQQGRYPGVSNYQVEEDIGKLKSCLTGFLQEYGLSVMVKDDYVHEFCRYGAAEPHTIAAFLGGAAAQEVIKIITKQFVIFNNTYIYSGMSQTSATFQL

Atg7 = target: T3, Atg7 (Homo sapiens, UniProt O95352); assay: Atg7 activity (Table I, biological activities); assay type: biochemical
T3 sequence (O95352 1-703): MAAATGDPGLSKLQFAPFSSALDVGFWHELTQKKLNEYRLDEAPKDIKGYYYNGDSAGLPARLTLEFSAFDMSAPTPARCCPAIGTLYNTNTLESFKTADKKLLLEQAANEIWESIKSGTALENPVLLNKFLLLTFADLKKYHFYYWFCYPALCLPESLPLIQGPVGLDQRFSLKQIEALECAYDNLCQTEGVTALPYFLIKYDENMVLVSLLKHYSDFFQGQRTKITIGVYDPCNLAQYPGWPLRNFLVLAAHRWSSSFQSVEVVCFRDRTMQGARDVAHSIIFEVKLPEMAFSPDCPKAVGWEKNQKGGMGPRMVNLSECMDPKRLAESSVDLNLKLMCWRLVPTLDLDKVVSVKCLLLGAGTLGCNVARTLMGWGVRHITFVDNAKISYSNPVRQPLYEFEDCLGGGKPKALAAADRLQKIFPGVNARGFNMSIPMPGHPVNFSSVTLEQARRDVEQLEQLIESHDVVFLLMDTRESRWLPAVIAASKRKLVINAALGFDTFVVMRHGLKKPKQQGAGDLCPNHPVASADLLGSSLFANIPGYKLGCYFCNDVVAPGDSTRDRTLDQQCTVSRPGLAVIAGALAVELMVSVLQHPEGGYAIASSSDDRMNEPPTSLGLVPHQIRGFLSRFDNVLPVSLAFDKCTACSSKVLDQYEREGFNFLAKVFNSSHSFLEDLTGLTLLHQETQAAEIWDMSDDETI

Compound	SUMO (SUMO)	Nedd8 (Nedd8)	Atg7 (Atg7)	c-Myc (c-Myc)
COC(=O)C1=C(C(=O)NC2CCN(C)CC2)C2OC1(C(Cc1ccccc1)Oc1ccccc1)C1OC21 (stereo not drawn) [Compound 541]	++	++	–	++
COC(=O)C1=C(CO)C2(C)C=CC1(C(Cc1ccccc1)Oc1ccccc1)O2 (stereo not drawn) [Compound 626]	+	–	++	–
CCOC(=O)C1=CC2OC1(C(c1ccccc1)N(C(=O)C(F)(F)F)c1ccccc1)c1ccccc12 (stereo not drawn) [Compound 585]	+	–	+	++
COC(=O)C1=C(C(N)=O)C2C=CC1(C(Cc1ccccc1)Nc1ccc(F)cc1)O2 (stereo not drawn) [Compound 540]	++	++	–	++
COC(=O)C1=C(C(=O)NCCN2CCCCC2)C2C=CC1(C(Cc1ccccc1)Nc1ccccc1)O2 (stereo not drawn) [Compound 462]	++	–	++	++
COC(=O)C1=C(CO)C2C=CC1(C(Cc1ccccc1)Oc1ccccc1)O2 (stereo not drawn) [Compound 584]	+	–	++	++
COC(=O)C1=C(C(=O)NCCN(C)C)C2C=CC1(C(Cc1ccccc1)Nc1cc(F)cc(Cl)c1)O2 (stereo not drawn) [Compound 227]	+++	–	–	+
CC(C)(C)OC(=O)C1=C(C(=O)OC(C)(C)C)C2(C(Cc3ccccc3)Nc3ccc(F)cc3F)C=CC1O2 (stereo not drawn) [Compound 313]	+++	–	–	+
CCOC(=O)C1=C(C(=O)Nc2ccc(C)c(F)c2)C2C=CC1(C(Nc1ccc(C)cc1)c1ccc(CN3CCOCC3)cc1)O2 (stereo not drawn) [Compound 613]	+	–	–	+
CCN(CC)CCNC(=O)C1=C(C(=O)OC)C2(C(Cc3ccccc3)Nc3cc(F)cc(F)c3)C=CC1O2 (stereo not drawn) [Compound 400]	++	–	–	++
CCOC(=O)C1=C(C(=O)NCCN(CC)CC)C2C=CC1(C(Cc1ccccc1)Nc1c(F)cccc1F)O2 (stereo not drawn) [Compound 434]	++	–	–	++
COC(=O)C1=C(C(=O)OC)C2(C(Cc3ccccc3)Nc3ccc(F)cc3F)C=CC1O2 (stereo not drawn) [Compound 171]	++	–	–	++
COC(=O)C1=C(C(=O)NCCN2CCN(C)CC2)C2C=CC1(C(Cc1ccccc1)Nc1ccccc1)O2 (stereo not drawn) [Compound 463]	++	–	++	++
COC(=O)C1=C(C(=O)Nc2ccc(C)c(F)c2)C2C=CC1(C(Oc1ccccc1)c1ccc(CN3CCOCC3)cc1)O2 (stereo not drawn) [Compound 496]	+	–	–	+
COC(=O)C1=C(C(N)=O)C2C=CC1(C(Cc1ccccc1)Nc1cccc(Oc3ccccc3)c1)O2 (stereo not drawn) [Compound 319]	+++	–	–	+
CCCCC(Nc1cc(F)cc(F)c1)C12C=CC(O1)C(C(=O)OC)=C2C(=O)OC (stereo not drawn) [Compound 212]	+++	–	–	+

Continued, in another order:

SUMO (SUMO)	Nedd8 (Nedd8)	Atg7 (Atg7)	Compound	c-Myc (c-Myc)
++	–	+	COC(=O)C1=C(C(=O)NCCN(C)C)C2(C)C=CC1(C(Cc1ccccc1)Nc1ccccc1)O2 (stereo not drawn) [Compound 619]	+
+	++	–	Cc1ccc(S(=O)(=O)C2=CC3(C)C=CC2(C(Cc2ccccc2)Nc2ccccc2)O3)cc1 (stereo not drawn) [Compound 531]	–
++	++	–	COC(=O)C1=C(C(=O)Nc2ccc(OC)cc2)C2C=CC1(C(Cc1ccccc1)Nc1cccc(CO)c1)O2 (stereo not drawn) [Compound 537]	+
++	–	–	CCOC(=O)C1=C(C(=O)Nc2ccc(OC)cc2)C2C=CC1(C(Nc1ccccc1)c1ccc(CN3CCOCC3)cc1)O2 (stereo not drawn) [Compound 567]	+
++	–	–	COC(=O)C1=C(C(=O)OC)C2(C(Cc3ccccc3)Nc3c(F)cccc3F)C=CC1O2 (stereo not drawn) [Compound 169]	+
++	–	–	CCOc1cccc(NC(Cc2ccccc2)C23C=CC(O2)C(C(=O)Nc2ccncc2)=C3C(=O)OC)c1 (stereo not drawn) [Compound 253]	+
+	–	–	CCOC(=O)C1=C(C(=O)NC2CCN(C)CC2)C2CCC1(C(Cc1ccccc1)Nc1ccc(F)cc1F)O2 (stereo not drawn) [Compound 345]	+
++	–	–	COC(=O)C1=C(C(=O)NCc2ccncc2)C2C=CC1(C(Cc1ccccc1)Nc1ccccc1)O2 (stereo not drawn) [Compound 201]	+
++	–	–	C=CCCC(Nc1ccccc1)C12C=CC(O1)C(C(=O)Nc1ccc(OC)cc1)=C2C(=O)OC (stereo not drawn) [Compound 176]	+
+	–	–	COC(=O)C1=C(C(=O)NC2CCN(C(C)=O)CC2)C2CCC1(C(Cc1ccccc1)Nc1ccccc1)O2 (stereo not drawn) [Compound 368]	+
++	–	–	COC(=O)C1=C(C(=O)OC)C2(C(Cc3ccc(C(F)(F)F)cc3)Nc3ccccc3)C=CC1O2 (stereo not drawn) [Compound 422]	+
+++	–	–	CCOc1cccc(NC(Cc2ccccc2)C23C=CC(O2)C(C(=O)NCCN(C)C)=C3C(=O)OC)c1 (stereo not drawn) [Compound 251]	+
++	–	–	CCOC(=O)C1=C(C(=O)NCCN2CCCC2)C2C=CC1(C(Cc1ccccc1)Nc1ccccc1)O2 (stereo not drawn) [Compound 564]	+
++	–	–	COC(=O)C1=C(C(=O)NC2CCN(C(=O)c3c(C)cccc3C)CC2)C2C=CC1(C(Cc1ccccc1)Nc1ccccc1)O2 (stereo not drawn) [Compound 381]	+
+++	–	–	COC(=O)C1=C(C(=O)Nc2ccc(OCCN(C)C)cc2)C2C=CC1(C(Cc1ccccc1)Nc1ccccc1)O2 (stereo not drawn) [Compound 491]	+
+++	–	–	COC(=O)C1=C(C(=O)Nc2ccc(C)c(F)c2)C2C=CC1(C(Cc1ccccc1)Nc1ccccc1F)O2 (stereo not drawn) [Compound 351]	+
